Measurements: PubChem BioAssay AID488890 (Southern Research Specialized Biocontainment Screening …, 2010)
Inconclusive results are not listed. Active and inactive are the calls of the source. How the calls were made is not given here.

system: Mycobacterium tuberculosis non-replicating, growth inhibition; test: growth inhibition of non-replicating M. tuberculosis (AID 488890)

Which IC50 does the source give for `O=S1(=O)N=C(N/N=C/C=C/c2ccccc2)c2ccccc21` here?
Its IC50 is 8.69 µM.

With `COc1ccc(Cc2nnc(-c3ccccc3)o2)cc1` as the compound, how does the IC50 read?
Its IC50 is 0.19 µM.

How did the IC50 turn out when `Cc1ccc(C(=O)C=CNNC(=O)c2ccccc2)cc1` was run?
The IC50 was 2.15 µM.

`Cn1c(/C=C/c2ccc([N+](=O)[O-])o2)nc2ccccc2c1=O` was tested. Which IC50 did it give?
The IC50 was under 0.1 µM.

Which IC50 does the source give for `CN(C)C=C1C(=O)N(C2CCCCC2)C(=O)N(C2CCCCC2)C1=O` here?
The IC50 was 1.57 µM.

For `COc1cccc(NC(=O)c2ccc(C(=O)c3ccccc3)o2)c1`, which IC50 is on record?
Its IC50 is 3.36 µM.

How did the IC50 turn out when `Cc1ccc(NC(=O)c2noc(C(C)C)c2[N+](=O)[O-])cc1` was run?
Its IC50 is 19.3 µM (inactive).

For `COc1ccc(/C=N/NC(=O)c2ccncc2)cc1CN1CCOCC1`, which IC50 is on record?
The IC50 was 4.37 µM.

How did the IC50 turn out when `CC1(c2nnc(Cc3ccccc3)o2)CC(c2ccccc2[N+](=O)[O-])=NO1` (configuration not stated) was run?
The IC50 was 10.5 µM (inactive).

Which IC50 does the source give for `CCCc1cc(NCc2ccccn2)n2nc(C)c(-c3ccccc3)c2n1` here?
The IC50 was 2.23 µM.

For `CCOC(=O)c1ccc(COC(=O)c2cc3ccccc3oc2=O)o1`, which IC50 is on record?
The IC50 was 12.1 µM (inactive).

With `O=C(CCc1ccc(Oc2cc([N+](=O)[O-])cc([N+](=O)[O-])c2)cc1)N1CCCCC1` as the compound, how does the IC50 read?
The IC50 was 4.85 µM.

Which IC50 does the source give for `COc1ccc(-c2cc(O)cc(O)c2)cc1` here?
Its IC50 is 6.15 µM.

How did the IC50 turn out when `Cc1cc(C=C2C(=O)NC(=S)NC2=O)c(C)n1C1CCCC1` was run?
Its IC50 is 3.88 µM.

For `COc1cc(CNC(C)(C)CO)cc(Br)c1OCc1ccc(Cl)cc1Cl`, which IC50 is on record?
The IC50 was 10 µM (inactive).

Which IC50 does the source give for `O=C(OCC(=O)N1CCN(c2ccccc2)CC1)c1ccc2ccccc2n1` here?
The IC50 was 8.13 µM.

How did the IC50 turn out when `Cc1cc(O)c(-c2cc(O)c(C)cc2O)cc1O` was run?
Its IC50 is 2.52 µM.

For `CC1Cc2ccccc2N1C(=O)COC(=O)c1ccc(Cl)nc1` (configuration not stated), which IC50 is on record?
Its IC50 is 18.5 µM (inactive).

With `CC1(C)OC(c2ccccc2)=C/C(=C\C=N\NC(=O)c2ccncc2)O1` as the compound, how does the IC50 read?
Its IC50 is 1.75 µM.

How did the IC50 turn out when `COc1ccc(OCC(=O)N/N=C2\CCc3ccccc32)cc1` was run?
Its IC50 is 9.35 µM.

How did the IC50 turn out when `Cc1nc(C(=O)Nc2ccccc2)sc1C(=O)Nc1ccccc1` was run?
Its IC50 is 9.77 µM.

For `COc1cccc(-c2nnc(NC(=O)c3cccc(F)c3)o2)c1`, which IC50 is on record?
The IC50 was 11.1 µM (inactive).

For `Cc1ccc2nc(NC(=O)c3ccccn3)sc2c1`, which IC50 is on record?
Its IC50 is 0.63 µM.

For `Cc1cccc(NC(=O)COC(=O)CCc2c[nH]c3ccccc23)c1`, which IC50 is on record?
Its IC50 is 1.94 µM.

For `O=C(Nc1nc2ccccc2[nH]1)c1cccc(Cl)c1`, which IC50 is on record?
Its IC50 is 9.06 µM.

With `O=C(OCC(=O)c1c[nH]c2ccccc12)c1ccc([N+](=O)[O-])s1` as the compound, how does the IC50 read?
The IC50 was 0.79 µM.

With `O=C(CCS(=O)(=O)c1ccc(Cl)cc1)Oc1ccc2c(c1)OCO2` as the compound, how does the IC50 read?
Its IC50 is 22.7 µM (inactive).

`CN(C(=O)COC(=O)c1ccc([N+](=O)[O-])cc1Cl)C1CCCCC1` was tested. Which IC50 did it give?
The IC50 was 5.88 µM.

For `Cc1ccnc(-n2c(C)cc(/C=C3\C(=O)NC(=S)N(C)C3=O)c2C)c1`, which IC50 is on record?
Its IC50 is 25.7 µM (inactive).

`O=C(Oc1cccc2cccnc12)c1ccc2c(c1)OCCO2` was tested. Which IC50 did it give?
The IC50 was 0.96 µM.

For `O=C(COC(=O)c1ccc(Br)o1)NC1CCCCC1`, which IC50 is on record?
Its IC50 is 9.79 µM.

For `CC1=C(C)/C(=N\OS(=O)(=O)c2ccccc2)C=CC1=O`, which IC50 is on record?
Its IC50 is 1.47 µM.

`COc1cc(/C=N/Nc2cccc3cccnc23)cc(OC)c1O` was tested. Which IC50 did it give?
The IC50 was 15.2 µM (inactive).

With `COc1ccc(-c2nnn(Cc3ccccc3)n2)cc1` as the compound, how does the IC50 read?
The IC50 was 12.4 µM (inactive).

`N=c1n(Cc2ccc(Cl)cc2)c2ccccc2n1CC(O)COc1ccccc1` (configuration not stated) was tested. Which IC50 did it give?
The IC50 was 13.5 µM (inactive).

With `COc1ccc(OCCOC(=O)CCS(=O)(=O)c2ccc(C)cc2)cc1` as the compound, how does the IC50 read?
The IC50 was 24.1 µM (inactive).

With `Cc1ccc(NCCC(=O)c2cccs2)cc1C` as the compound, how does the IC50 read?
The IC50 was 6.07 µM.

With `O=C1N=c2ccccc2=C1c1c(O)n(-c2cccc(F)c2)[nH]c1=O` as the compound, how does the IC50 read?
The IC50 was 6.91 µM.

How did the IC50 turn out when `Cc1ccc(C(=O)N/N=C/C=C/c2ccccc2)cc1` was run?
Its IC50 is 3.77 µM.

`Clc1ccc(-c2ccc(CNCc3ccccn3)o2)cc1` was tested. Which IC50 did it give?
The IC50 was 0.77 µM.

With `CCOC(=O)c1ccc(NC(=O)NS(=O)(=O)c2ccc(C)cc2)cc1` as the compound, how does the IC50 read?
The IC50 was 3.31 µM.

How did the IC50 turn out when `Cn1cnc([N+](=O)[O-])c1Sc1ccc(Br)cc1` was run?
Its IC50 is 23.6 µM (inactive).

Which IC50 does the source give for `Cc1ccc(CN2CC(C(=O)OCc3ccccc3Cl)CC2=O)cc1` (configuration not stated) here?
Its IC50 is 8.11 µM.

With `COc1ccc(S(=O)(=O)NCc2ccc3c(c2)cc(C)n3C)cc1` as the compound, how does the IC50 read?
Its IC50 is 19.9 µM (inactive).

`O=C(CCSc1nnc(-c2ccccc2)o1)N1CCOCC1` was tested. Which IC50 did it give?
Its IC50 is 3.95 µM.

For `CC1=NNC(=O)/C1=C\c1cn(-c2ccccc2)nc1-c1cccs1`, which IC50 is on record?
Its IC50 is 4.96 µM.

Which IC50 does the source give for `CCN1C(=O)CC(N2CCC(c3nc4ccccc4[nH]3)CC2)C1=O` (configuration not stated) here?
Its IC50 is 34.2 µM (inactive).

With `CSc1ccc(CNc2ncc(-c3cccc([N+](=O)[O-])c3)n2C)cc1` as the compound, how does the IC50 read?
Its IC50 is 21.1 µM (inactive).

`C/C(=N\NC(=O)c1cccc(Br)c1)c1ccccn1` was tested. Which IC50 did it give?
The IC50 was 3.65 µM.

Which IC50 does the source give for `O=C(Nc1ccc(N2CCN(C(=O)c3cccs3)CC2)cc1)c1ccc([N+](=O)[O-])o1` here?
Its IC50 is 0.35 µM.

How did the IC50 turn out when `CC(C)OC(=O)c1cc(C(=O)c2cc(Cl)ccc2O)coc1=N` was run?
The IC50 was 4.66 µM.

`O=[N+]([O-])c1cnc(Nc2ccc(Cl)cn2)c([N+](=O)[O-])c1` was tested. Which IC50 did it give?
The IC50 was 1.89 µM.

Which IC50 does the source give for `Cc1cccc(OC(=O)c2ccc3nccnc3c2)c1` here?
The IC50 was 7.79 µM.

For `COc1ccc2nc(C)cc(N/N=C/c3ccccc3)c2c1`, which IC50 is on record?
The IC50 was 2.6 µM.

`O=C(OCC(=O)N1CCCCC1)c1cc2ccccc2cc1O` was tested. Which IC50 did it give?
Its IC50 is 5.84 µM.

With `O=C(OCC(=O)N1CCC(c2ccccc2)=N1)c1ccc([N+](=O)[O-])s1` as the compound, how does the IC50 read?
Its IC50 is 0.61 µM.

`C=CCN1C(=O)C2(NNc3ccccc3O2)c2ccccc21` (configuration not stated) was tested. Which IC50 did it give?
Its IC50 is 2.25 µM.

With `CCOC(=O)CNc1ccc(C(=O)OCC)cc1[N+](=O)[O-]` as the compound, how does the IC50 read?
Its IC50 is 11 µM (inactive).

With `Cc1cc(C(=O)N/N=C/c2cccc(Cl)c2Cl)no1` as the compound, how does the IC50 read?
Its IC50 is 1.01 µM.

With `NNC(=O)COc1cccc(Oc2ccccc2)c1` as the compound, how does the IC50 read?
Its IC50 is 25.2 µM (inactive).

`O=C(COc1ccc2ccccc2c1)N/N=C/c1ccccn1` was tested. Which IC50 did it give?
The IC50 was 6.72 µM.

For `O=Cc1ccc(OC2OCCOC2Oc2ccc(C=O)cc2)cc1` (configuration not stated), which IC50 is on record?
The IC50 was 14.2 µM (inactive).

For `c1coc(CNc2nc(N3CCCCC3)nc3ccccc23)c1`, which IC50 is on record?
The IC50 was 2.9 µM.

With `Clc1ccc(CN2C3=NCCCN3c3ccccc32)cc1` as the compound, how does the IC50 read?
Its IC50 is 12.3 µM (inactive).

How did the IC50 turn out when `Cc1c(Cl)cccc1NC(=O)C1COc2ccccc2O1` (configuration not stated) was run?
Its IC50 is 12.1 µM (inactive).

`Cc1cc(C)nc(Sc2ncnc(N)c2[N+](=O)[O-])n1` was tested. Which IC50 did it give?
Its IC50 is 10.7 µM (inactive).

How did the IC50 turn out when `CCCCc1ccc(NS(=O)(=O)c2c(C)n(C)c(=O)n(C)c2=O)cc1` was run?
The IC50 was 27.1 µM (inactive).

Which IC50 does the source give for `Cc1nn(C)cc1/C=N/NC(=O)c1sc2ccccc2c1Cl` here?
Its IC50 is 27.8 µM (inactive).

For `O=C1NC2(CCC3(CC2)OCCO3)NN1c1ccc(Cl)cc1`, which IC50 is on record?
Its IC50 is 0.84 µM.

With `CCCCCCCC(=O)N/N=C(/C)c1c(O)cc(C)oc1=O` as the compound, how does the IC50 read?
The IC50 was 4.26 µM.

Which IC50 does the source give for `O=C1/C(=C/C=C/c2ccccc2)Oc2c1ccc(O)c2CN1CCN(CCO)CC1` here?
Its IC50 is 36.8 µM (inactive).

Which IC50 does the source give for `O=C1CCCCC1Sc1nnc(-c2ccc3c(c2)OCO3)o1` (configuration not stated) here?
Its IC50 is 1.83 µM.

With `CCCOC(=O)c1ccc(-c2ccc(C=O)o2)cc1` as the compound, how does the IC50 read?
The IC50 was 1.27 µM.

With `O=C(NNC1=Nc2ccccc2SC1)c1ccc(F)cc1` as the compound, how does the IC50 read?
The IC50 was 17.3 µM (inactive).

For `CCOC(=O)c1sc2nc(CSc3ccccc3)nc(NCCN(C)C)c2c1C`, which IC50 is on record?
Its IC50 is 14.9 µM (inactive).

`COc1ccc(C2(O)CCN(CCCCOc3ccccc3)CC2)cc1` was tested. Which IC50 did it give?
The IC50 was 18.1 µM (inactive).

`CCOC(=O)c1cc(-c2csc(COc3ccccc3)n2)on1` was tested. Which IC50 did it give?
The IC50 was under 0.1 µM.

How did the IC50 turn out when `O=C(Nc1cc(C(F)(F)F)ccc1-n1cncn1)c1ccc([N+](=O)[O-])o1` was run?
Its IC50 is 17.9 µM (inactive).

How did the IC50 turn out when `COCCn1c(C)cc(C(=O)COC(=O)c2ccc([N+](=O)[O-])o2)c1C` was run?
The IC50 was 2.79 µM.

With `Cc1ccc(-c2nnc(NC3CCCC3)s2)cc1` as the compound, how does the IC50 read?
The IC50 was 23.8 µM (inactive).

Which IC50 does the source give for `O=C(NCc1cccs1)c1ccc(Br)o1` here?
Its IC50 is 3.37 µM.

`COc1ccc(C2=NC(=O)/C(=C\c3cc(OC)c(OC)c(OC)c3)O2)cc1` was tested. Which IC50 did it give?
Its IC50 is 3.37 µM.
